Patent USRE35801E, “Prophylactic and therapeutic composition for circulatory disorders and method of treatment” (priority 1985, dated 1998)
Where “and” joins values, the source holds several entries; their conditions need not be identical. Equal entries are not always repeated.

How the values were obtained:
[1] = test system: drowsy pattern of electroencephalogram induced by phenobarbital or pentobarbital sodium salt; test: Antagonistic action against drowsy pattern of electroencephalogram induced by phenobarbital or pentobarbital sodium salt; type: in vivo, Wistar-strain male rat; conditions: Rattus norvegicus; intravenous, sodium salt; drowsy EEG after PHB 30 mg/kg or PBT 5 mg/kg; read-out: Antagonistic action at dose or higher
Experimental: (2) Antagonistic action against drowsy pattern of so electroencephalogram induced by phenobarbital or pentobarbital sodium salt
A Wistar-strain male rat weighing about 400 g was intramasculary administered with 0.6 mg of d-tubocurarine to be immobilized and, while maintaining the rectal temperature at 37° to 38° C. under artificial respiration, the electroencephalogram of the left cerebral frontal cortex was measured and recorded. Also, within the left femoral artery and vein, cannulas for measurement of artery pressure and for administration of medicine were placed, respectively.
As the active ingredient of the present invention, sodium salt of the compound represented by Formula (I) was used and the respective doses of said active ingredient and 30 mg/kg of phenobarbital sodium salt (produced by Iwaki Seiyaku K.K.) (hereinafter called "PHB") or 5 mg/kg of pentobarbital sodium salt (hereinafter called PBT) were each dissolved in physiological saline and administered intravenously in a liquid amount of 1 ml/kg.
The action of the active ingredient of the present invention affecting the cortex electroencephalogram after PHB or PBT administration was investigated as follows; Namely, at the time of 5 minutes or later after PHB or PBT administration when increase of the slow-wave component can be clearly recognized on electroencephalogram, 1, 3, 10, 30 and 100 mg/kg of the active ingredient were administered. To the control group 1 ml/kg of physiological saline was intravenously administered.
Recording and analysis of electroencephalogram were continuously drawn together with artery pressure, heart rate and rectal temperature on the recorder through a multi-purpose monitoring recording device (model RM-85, produced by Nippon Koden K.K.). At the same time, electroencephalogram was recorded in data recorder (model A-65, produced by Sony K.K.), and compressed spectral array analysis was conducted by means of a computer for medical data processing (ATAC-450, produced by Nippon Koden K.K.).

[2] = National Cancer Institute Report, 1978; cited from earlier work
mouse = mouse intraperitoneal administration; cited from earlier work
[3] = test system: lipid peroxidation (brain homogenate); test: Inhibitory action of lipid peroxidation in brain homogenate (TBA value); type: biochemical; conditions: inhibition of lipid peroxidation, rat brain homogenate, 37° C., 30 minutes
Experimental: (1) Inhibitory action of lipid peroxidation (a) Preparation of brain homogenate By use of Wister-strain male rat, brain homogenate was prepared following the procedure as described below. […] Next, a brain perfusion was conducted through the tube with ice-cooled 50 mM phosphate-buffered physiological saline (pH 7.4) hereinafter referred to as "PBS"), and the whole brain was extirpated. After removal of cerebellum, the wet weight of cerebrum was measured and, with addition of 9-fold amount of PBS, it was broken by a Teflon homogenizer in ice-water to be homogenized. After the brain homogenate was subjected to centrifugation at 4° C. at 2200 rpm for 10 minutes, 0.3 ml of the supernatant was apportioned into a light-shielding test tube equipped with a ground stopper, to provide a brain homogenate for evaluation of medicine. (b) Evaluation of test medicine To the brain homogenate produced in (a), 0.6 ml of PBS and 10 μl of ethanolic solution of a test medicine were added (to a final concentration of 500 μM or a concentration at a common ratio of 3 between 0.3 and 100 μm), and the mixture was heated in a warm bath at 37° C. for 30 minutes. […] Also, the same operation was performed by addition of 10 μl of ethanol (blank) in place of 10 μl ethanolic solution of the test medicine for measurement of blank. […] After shaking for about 30 seconds, the mixture was subjected to centrifugation at 3000 rpm for 10 minutes, and the supernatant was provided as a sample for measurement of peroxidized lipid.

rat = rat oral administration; cited from earlier work
[4] = test system: cerebral ischemia recirculation model; test: Protective action in cerebral ischemia recirculation model; type: in vivo, Wistar-strain male rat; design: key to Presence of electroencephalogram restoration / Judgement of action: The case when restoration of electroencephalogram is judged as +; case when not recognized as -
Experimental: (3) Protective action in cerebral ischemia recirculation model
A Wistar-strain male rat weighing about 400 g was administered intramascularly with 0.6 mg of di-tubocurarine to be immobilized and, after a trachea cannulation, the head portion was fixed under artificial respiration on a stereotaxic device. The head skin was cut open, cranial bone was bored, and then bipolar electrode for lead-out of electroencephalogram were placed on the surface of the subdural left frontal cerebral cortex. After the electrode was fixed with the cranial bone by use of dental cement, the animal was held on its back. Next, a cannula for measurement of systemic pressure was placed within the left femoral artery, and a cannula for additional administration of d-tubocurarine within the left femoral vein, respectively. The heart rate was measured and recorded by driving a heart rate meter with the artery wave.
After blood pressure, heart rate and various parameters of electroencephalogram were stabilized, 10 mg/kg of the active ingredient of the present invention prepared in a suspension so as to give 1 ml/kg in 1% tragacanth gum solution was administered directly into duodenum […]. To the control group, only the 1% tragacanth gum solution of the same volume was administered similarly.
Ten to twenty minutes after administration of the medicine, while monitoring the electroencephalogram, blood pressure and heart rate on a multi-purpose monitoring recording device (RM-85 model, produced by Nippon Koden K.K.), the following operations were performed according to the methods shown below for cerebral ischemia loading.
First, ribs were set free at the left costicartilage end to open the chest. Next, cerebral blood flow was blocked for ten minutes by obstructing the left common carotid artery and the left subclavian artery exposed at the aorta originating portion at the same time, and then the brachiocephalic trunk by use of artery clips 30 minutes after administration of the medicine.
Recirculation of cerebral blood flow was effected by releasing at the same time the two artery clips mounted on the respective sites as mentioned above.
The protective action of the medicine for the disorder after recirculation of cerebral ischemia was examined by the presence of restoration of electroencephalogram, and survival time of animal after the recirculation.
During the experiment, the rectal temperature of the animal was maintained at 37° to 38° C. by use of a warming mat. Also, the rectal temperature was continuously drawn on the recorder together with electroencephalogram, femoral artery pressure and heart rate.

CC1=NN(c2ccccc2)C(=O)C1 [Compound 1, 3-methyl-1-phenyl-2-pyrazolin-5-one]
minimal effective dose [1]: ≥ 1 mg/kg
carcinogenicity [2]: free from carcinogenicity
LD50 (mouse): 2012 mg/kg
IC50 [3]: 18.2 µM
LD50 (rat): 3500 mg/kg
Presence of electroencephalogram restoration ([4]; 10 mg/kg into duodenum, 10 min cerebral ischemia (Table 3)): +
Survival time after recirculation, average ([4]; 10 mg/kg, average): 117 min
Judgement of action ([4]; 10 mg/kg, individual animal): +
Presence of electroencephalogram restoration ([4]; 10 mg/kg, individual animal): +
Survival time after recirculation ([4]; 10 mg/kg, individual animal): 46 min and 140 min and 164 min
electroencephalogram restoration during recirculation period (in words) ([4]; active ingredient group): electroencephalogram appeared by restoration during recirculation period depending on the dose of 3 to 10 mg/kg
survival time of animals after recirculation (in words) ([4]; active ingredient group): clearly elongated
